What all share (assay type): in vivo
The test system of assay [1] is Aphis gossypii. In words: Aphis gossypii test, Example G (sprayed to runoff, ammonium salt plus penetrant). As for the experimental part: (§1) Solvent: 7 parts by weight dimethylformamide
(§2) Emulsifier: 2 parts by weight alkylaryl polyglycol ether
An appropriate preparation of active ingredient is prepared by mixing 1 part by weight of active ingredient with the stated amounts of solvent and emulsifier and diluting the concentrate with emulsifier-containing water to the desired concentration. For the application with ammonium salts or phosphonium salts and penetrants (rapeseed oil methyl esters 500 EW), they are each added in a concentration of 1000 ppm a.i. to the spray liquor.
(§3) Cotton plants (Gossypium hirsutum) heavily infested by the cotton aphid (Aphis gossypii) are sprayed to runoff with the preparation of active ingredient at the desired concentration.
(§4) After the desired time the destruction in % is ascertained. 100% means that all of the aphids have been killed; 0% means than no aphids were killed.

Assay [2] relates to Myzus persicae. In words: Myzus persicae test, Example D (sprayed to runoff, ammonium salt boosting). As for the experimental part:
as §1, §2
An appropriate preparation of active ingredient is prepared by mixing 1 part by weight of active ingredient with the stated amounts of solvent and emulsifier and diluting the concentrate with water to the desired concentration. For the application with ammonium salts or phosphonium salts, these salts are added in a concentration of 1000 ppm to the spray liquor.
Paprika plants (Capsicum annum) heavily infested by the green peach aphid (Myzus persicae) are treated by being. sprayed to runoff with the preparation of active ingredient at the desired concentration. After the desired time the destruction in % is ascertained. 100% means that all of the animals have been killed; 0% means that no animals have been killed.

Assay [3] deals with Myzus persicae. In words: Myzus persicae test, Example F (sprayed to runoff, ammonium salt plus penetrant). As for the experimental part: as §1, §2
An appropriate preparation of active ingredient is prepared by mixing 1 part by weight of active ingredient with the stated amounts of solvent and emulsifier and diluting the concentrate with water to the desired concentration. For the application with ammonium salts or phosphonium salts and penetrant (rapeseed oil methyl ester 500 EW), they are each added in a concentration of 1000 ppm to the spray liquor.
After the desired time the destruction in % is ascertained. 100% means that all of the animals have been killed; 0% means that no animals have been killed.

The subject of assay [4] is Aphis gossypii. Put plainly: Aphis gossypii test, Example E (sprayed to runoff, ammonium salt boosting). As for the experimental part: as §1, §2
An appropriate preparation of active ingredient is prepared by mixing 1 part by weight of active ingredient with the stated amounts of solvent and emulsifier and diluting the concentrate with emulsifier-containing water to the desired concentration. For the application with ammonium salts or phosphonium salts, these salts are added in a concentration of 1000 ppm to the spray liquor.
as §3, §4

Where [5] appears, read: 20 ppm active ingredient, +AS (1000 ppm).
The mark [6] stands for this setting: 20 ppm active ingredient, no additive.
The mark [7] stands for this setting: 4 ppm active ingredient, +AS (1000 ppm).
Setting [8] is: 4 ppm active ingredient, +RME (1000 ppm).
[9] abbreviates: 4 ppm active ingredient, +RME +AS (each 1000 ppm).
Where [10] appears, read: 4 ppm active ingredient, no additive.
The mark [11] stands for this setting: 20 ppm active ingredient, +RME (1000 ppm).
Setting [12] is: 20 ppm active ingredient, +RME +AS (each 1000 ppm).
[13] abbreviates: 0.8 ppm active ingredient, +AS (1000 ppm).
Setting [14] is: 0.8 ppm active ingredient, +RME (1000 ppm).
[15] abbreviates: 0.8 ppm active ingredient, +RME +AS (each 1000 ppm).
Setting [16] is: 0.8 ppm active ingredient, no additive.
[17] abbreviates: 100 ppm active ingredient, +AS (1000 ppm).
The mark [18] stands for this setting: 100 ppm active ingredient, +RME (1000 ppm).
[19] abbreviates: 100 ppm active ingredient, +RME +AS (each 1000 ppm).
[20] abbreviates: 100 ppm active ingredient, no additive.

As for `Cc1cc(C)c(C2C(=O)N3CCOCCN3C2=O)c(C)c1-c1ccc(Cl)cc1` [Example I-8-a-4], the “Degree of destruction/% after 6 days” value in the assay with Aphis gossypii [1] (90 ppm active ingredient, +AS (1000 ppm)) was determined as 35%; with Aphis gossypii [1] (90 ppm active ingredient, +RME (1000 ppm)) it was 30%; in the assay on Aphis gossypii [1] (90 ppm active ingredient, +RME +AS (each 1000 ppm)), 75%; with Aphis gossypii [1] (90 ppm active ingredient, no additive), 30%.

As for `COc1cc(C)cc(C)c1-c1c(O)sc(-c2ccc(F)cc2)nc1=O` [Example I-5-a-1], the “Degree of destruction/% after 6 days” value is given as 55% in the assay on Myzus persicae [2] (setting [5]); 0% with Myzus persicae [2] (setting [6]); 5% in the assay on Myzus persicae [3] (setting [7]); 55% in the assay on Myzus persicae [3] (setting [8]); 95% in the assay on Myzus persicae [3] (setting [9]); 0% with Myzus persicae [3] (setting [10]).

Regarding `Cc1ccc(-c2ccc(Cl)cc2)cc1C1=C(O)C2(C)CCCCC2OC1=O` (centres unmarked) [Example I-10-a-2], the “Degree of destruction/% after 6 days” value is recorded as 10% with Myzus persicae [3] (setting [5]); 0% in the assay on Myzus persicae [3] (setting [11]); 65% in the assay with Myzus persicae [3] (setting [12]); 5% in the assay on Myzus persicae [3] (setting [6]); 50% in the assay on Aphis gossypii [4] (setting [7]); 0% with Aphis gossypii [4] (setting [10]). Besides, the results for the “Degree of destruction/% after 6 days” value with Aphis gossypii [4] (setting [5]) and in the assay on Aphis gossypii [4] (setting [6]) were 80% and 10%, respectively.

In the case of `COCC1CCC2(CC1)NC(=O)C(c1c(C)cc(Cl)cc1Cl)=C2O` (centres unmarked) [Example I-1-a-16], the “Degree of destruction/% after 6 days” value with Aphis gossypii [1] (setting [5]) was determined as 85%; in the assay with Aphis gossypii [1] (setting [11]), 95%; in the assay with Aphis gossypii [1] (setting [12]) it was 99%; with Aphis gossypii [1] (setting [6]) it was 75%; with Aphis gossypii [4] (setting [7]) it was 75%; in the assay with Aphis gossypii [4] (setting [10]) it was 40%. Also, the “Degree of destruction/% after 6 days” value in the assay on Aphis gossypii [4] (setting [5]) turned out to be 85%; with Aphis gossypii [4] (setting [6]), 75%.

`COCC1CCC2(CC1)NC(=O)C(c1c(C)cc(Cl)cc1C)=C2O` (centres unmarked) [Example I-1-a-15]: the “Degree of destruction/% after 6 days” value in the assay with Myzus persicae [3] (setting [13]) is on record as 0%; with Myzus persicae [3] (setting [14]), 50%; in the assay with Myzus persicae [3] (setting [15]), 80%; with Myzus persicae [3] (setting [16]), 15%; in the assay with Aphis gossypii [4] (setting [7]) it was 75%; with Aphis gossypii [4] (setting [10]), 40%. In addition, the results for the “Degree of destruction/% after 6 days” value in the assay on Aphis gossypii [4] (setting [5]) and in the assay on Aphis gossypii [4] (setting [6]) were 95% and 80%, respectively.

Regarding `CCOC(=O)OC1=C(c2c(C)cc(C)cc2C)C(=O)NC12CCC(COC)CC2` (centres unmarked) [Example I-1-c-2], the “Degree of destruction/% after 6 days” value in the assay on Aphis gossypii [1] (setting [5]) amounted to 85%; in the assay with Aphis gossypii [1] (setting [11]) it was 90%; in the assay with Aphis gossypii [1] (setting [12]), 99%; in the assay with Aphis gossypii [1] (setting [6]), 85%.

Consider `Cc1ccc(-c2ccc(Cl)cc2)c(C)c1C1C(=O)N2CCOCCN2C1=O` [Example I-8-a-3], for which the “Degree of destruction/% after 6 days” value with Aphis gossypii [1] (setting [5]) came to 50%; with Aphis gossypii [1] (setting [11]), 50%; with Aphis gossypii [1] (setting [12]), 90%; in the assay on Aphis gossypii [1] (setting [6]), 15%.

As for `O=C1C(c2cc(-c3ccc(Cl)cc3)ccc2Cl)C(=O)N2CCOCCN12` [Example I-8-a-2], the “Degree of destruction/% after 6 days” value with Myzus persicae [3] (setting [17]) is listed as 15%; in the assay with Myzus persicae [3] (setting [18]), 15%; in the assay with Myzus persicae [3] (setting [19]), 55%; in the assay on Myzus persicae [3] (setting [20]) it was 0%.

For `Cc1cc(C)c(C2=C(O)C3(CCCCC3)CC2=O)c(C)c1` [Example I-6-a-1], the “Degree of destruction/% after 6 days” value in the assay on Aphis gossypii [1] (setting [17]) was 40%; in the assay with Aphis gossypii [1] (setting [18]), 60%; in the assay on Aphis gossypii [1] (setting [19]) it was 80%; in the assay on Aphis gossypii [1] (setting [20]) it was 40%.

In the case of `COC1CCC2(CC1)NC(=O)C(c1c(C)cc(C)c(C)c1C)=C2O` (centres unmarked) [Example I-1-a-9], the “Degree of destruction/% after 6 days” value with Myzus persicae [3] (setting [13]) was found to be 5%; with Myzus persicae [3] (setting [14]), 35%; in the assay with Myzus persicae [3] (setting [15]), 75%; in the assay with Myzus persicae [3] (setting [16]) it was 0%.

In the case of `COCCC1CCC2(CC1)NC(=O)C(c1c(C)cc(C)cc1C)=C2O` (centres unmarked) [Example I-1-a-17], the “Degree of destruction/% after 6 days” value in the assay on Aphis gossypii [4] (setting [7]) was 80%; in the assay on Aphis gossypii [4] (setting [10]), 50%; in the assay with Aphis gossypii [4] (setting [5]), 85%; in the assay on Aphis gossypii [4] (setting [6]), 70%.

On to `CO[C@H]1CC[C@]2(CC1)NC(=O)C(c1cc(C)ccc1C)=C2O` [Example I-1-a-13], for which the “Degree of destruction/% after 6 days” value in the assay with Myzus persicae [3] (setting [13]) was 0%; with Myzus persicae [3] (setting [14]), 0%; in the assay with Myzus persicae [3] (setting [15]), 30%; in the assay on Myzus persicae [3] (setting [16]), 0%; in the assay on Myzus persicae [3] (setting [7]), 0%; in the assay with Myzus persicae [3] (setting [8]), 65%. For the same compound, the “Degree of destruction/% after 6 days” value with Myzus persicae [3] (setting [9]) is reported as 75%; in the assay with Myzus persicae [3] (setting [10]) it was 0%.

On to `Cc1ccc(-c2ccc(Cl)cc2)cc1C1=C(O)C(C)(C)C(C)(C)NC1=O` [Example I-9-a-1], for which the “Degree of destruction/% after 6 days” value in the assay with Myzus persicae [3] (setting [17]) turned out to be 0%; in the assay with Myzus persicae [3] (setting [18]), 5%; in the assay on Myzus persicae [3] (setting [19]) it was 50%; in the assay with Myzus persicae [3] (setting [20]), 15%.

For `CO[C@@H]1CCC[C@]2(C1)NC(=O)C(c1c(C)cc(C)cc1C)=C2O` [Example I-1-a-6], the “Degree of destruction/% after 6 days” value in the assay with Aphis gossypii [1] (setting [7]) is on record as 55%; in the assay with Aphis gossypii [1] (setting [8]), 50%; in the assay with Aphis gossypii [1] (setting [9]) it was 80%; in the assay on Aphis gossypii [1] (setting [10]), 25%; with Aphis gossypii [4] (setting [13]), 30%; in the assay with Aphis gossypii [4] (setting [16]) it was 15%. Further, the “Degree of destruction/% after 6 days” value in the assay on Aphis gossypii [4] (setting [7]) was 55%; with Aphis gossypii [4] (setting [10]), 25%.

Take `COC1CCC2(CC1)OC(=O)C(c1c(C)cc(C)cc1C)=C2O` (centres unmarked) [Example I-2-a-1]: the “Degree of destruction/% after 6 days” value with Myzus persicae [2] (setting [13]) is on record as 65%; with Myzus persicae [2] (setting [16]) it was 20%; in the assay on Myzus persicae [2] (setting [7]) it was 98%; in the assay on Myzus persicae [2] (setting [10]) it was 90%; in the assay with Myzus persicae [3] (setting [13]), 65%; in the assay with Myzus persicae [3] (setting [14]) it was 95%. Also, the “Degree of destruction/% after 6 days” value worked out at 100% in the assay with Myzus persicae [3] (setting [15]); 20% in the assay on Myzus persicae [3] (setting [16]); 85% in the assay on Aphis gossypii [4] (setting [13]); 0% in the assay on Aphis gossypii [4] (setting [16]); 95% in the assay with Aphis gossypii [4] (setting [7]); 80% with Aphis gossypii [4] (setting [10]).

Regarding `Cc1ccccc1-c1c(O)c(C)c(-c2ccccn2)oc1=O` [Example I-4-a-2], the “Degree of destruction/% after 6 days” value in the assay with Aphis gossypii [1] (setting [7]) is 60%; in the assay with Aphis gossypii [1] (setting [8]), 0%; with Aphis gossypii [1] (setting [9]), 65%; with Aphis gossypii [1] (setting [10]), 5%; with Aphis gossypii [4] (setting [7]), 60%; in the assay with Aphis gossypii [4] (setting [10]), 50%.

As to `COCC1CCC2(CC1)NC(=O)C(c1cc(C)c(Cl)cc1C)=C2O` (centres unmarked) [Example I-1-a-18], the “Degree of destruction/% after 6 days” value was found to be 0% in the assay on Myzus persicae [3] (setting [7]), 35% with Myzus persicae [3] (setting [8]), 55% in the assay on Myzus persicae [3] (setting [9]) and 0% in the assay with Myzus persicae [3] (setting [10]).

Turning to `O=C1C(c2cc(-c3ccc(Cl)cc3)ccc2Cl)C(=O)N2CCCCN12` [Example I-8-a-1], the “Degree of destruction/% after 6 days” value was determined as 15% with Aphis gossypii [1] (setting [17]); 15% in the assay with Aphis gossypii [1] (setting [18]); 40% in the assay with Aphis gossypii [1] (setting [19]); 0% with Aphis gossypii [1] (setting [20]); 30% in the assay with Myzus persicae [3] (setting [17]); 30% in the assay with Myzus persicae [3] (setting [18]). Besides, the results for the “Degree of destruction/% after 6 days” value in the assay on Myzus persicae [3] (setting [19]) and in the assay with Myzus persicae [3] (setting [20]) were 45% and 15%, respectively.

As for `COCC1CCC2(CC1)NC(=O)C(c1c(C)cc(C)cc1C)=C2O` (centres unmarked) [Example I-1-a-14], the “Degree of destruction/% after 6 days” value is listed as 40% in the assay with Aphis gossypii [4] (setting [13]), 25% in the assay on Aphis gossypii [4] (setting [16]), 90% with Aphis gossypii [4] (setting [7]) and 55% in the assay on Aphis gossypii [4] (setting [10]).

Consider `COC1CCCC2(CC(O)=C(c3c(C)cc(C)cc3C)C2=O)C1` (centres unmarked) [Example I-6-a-2], for which the “Degree of destruction/% after 6 days” value in the assay with Aphis gossypii [1] (setting [17]) was 30%; in the assay with Aphis gossypii [1] (setting [18]), 15%; with Aphis gossypii [1] (setting [19]), 40%; with Aphis gossypii [1] (setting [20]), 0%.

Source of the values: patent US8247351B2, “Insecticidal compositions having improved effect” (Bayer Cropscience AG, priority 2005, dated 2012).
